Data as given in PubChem BioAssay (NCI).
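Dose response: 5 concentrations. Exposure: 48 h. Format: 96-well plates. Endpoint: linear interpolation; highest concentration if not reached. Abbreviation: GI50, concentration required for 50% inhibition of growth. TGI is the concentration that stops growth completely.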

Assays:
Experiment in all cases: NCI-60 cell line screen, 48 h
MDA-MB-435 = test system: MDA-MB-435
SK-MEL-2 melanoma = test system: SK-MEL-2 melanoma
U251 CNS = test system: U251 CNS
HCC-2998 colon = test system: HCC-2998 colon
786-0 renal = test system: 786-0 renal
HS 578T breast = test system: HS 578T breast
NCI-H226 lung = test system: NCI-H226 lung
OVCAR-5 ovarian = test system: OVCAR-5 ovarian
K-562 leukemia = test system: K-562 leukemia
NCI-H460 lung = test system: NCI-H460 lung

SMILES	GI50 (MDA-MB-435) [µM]	TGI (MDA-MB-435) [µM]	GI50 (SK-MEL-2 melanoma) [µM]	GI50 (U251 CNS) [µM]	TGI (U251 CNS) [µM]	GI50 (HCC-2998 colon) [µM]	TGI (HCC-2998 colon) [µM]	GI50 (786-0 renal) [µM]	TGI (786-0 renal) [µM]	GI50 (HS 578T breast) [µM]	TGI (HS 578T breast) [µM]	GI50 (NCI-H226 lung) [µM]	TGI (NCI-H226 lung) [µM]	GI50 (OVCAR-5 ovarian) [µM]	TGI (OVCAR-5 ovarian) [µM]	GI50 (K-562 leukemia) [µM]	TGI (K-562 leukemia) [µM]	GI50 (NCI-H460 lung) [µM]	TGI (NCI-H460 lung) [µM]	TGI (SK-MEL-2 melanoma) [µM]
NC(=O)C(Br)CBr (stereo unspecified)	1.74	4.33	2.26	3.73	14.7	2.18	4.78	5.65	16.1	2.86	14.3	7.68	27.1	5.73	13.7	1.38	5.29	3.56	13.5	–
C=C1C(=O)O[C@H]2[C@H]1CC/C(CNS(=O)(=O)c1ccc3ccccc3c1)=C\CC[C@@]1(C)O[C@@H]21	2.35	7.37	2.13	8.29	21.1	3.68	11.3	1.62	3.22	4.69	29.1	13.9	34.8	1.99	4.82	0.691	4.46	8.14	24.3	5.45
CCOC(=O)c1cc2c(n1Cc1cc(OC)cc(OC)c1)-c1oncc1CCC2	0.0313	0.112	0.038	0.255	> 100	0.322	> 100	0.104	> 100	0.0492	> 100	23	> 100	0.294	> 100	0.0575	> 100	0.071	> 100	> 100
C=C1C(=O)O[C@H]2[C@H]1CC/C(CNC(=O)/C=C/c1cccc(OC)c1)=C\CC[C@@]1(C)O[C@@H]21	1.53	5.04	1.47	1.58	3.11	1.83	3.31	1.54	3.58	2.2	11.2	1.82	4.84	2.05	5.36	1.31	18.6	2.51	7.05	3.31
O=S1(=O)N(Cc2ccccc2)[C@@H](Cc2ccccc2)C2O[C@H]2[C@H](Cc2ccccc2)N1Cc1ccccc1 (stereo partly specified)	> 7.5	> 7.5	> 7.5	1.84	> 7.5	> 7.5	> 7.5	5.12	> 7.5	> 7.5	> 7.5	> 7.5	> 7.5	> 7.5	> 7.5	3.34	> 7.5	2.53	> 7.5	> 7.5
Cc1[nH]c(C(=O)Nc2ccc(C(=O)N3CCNCC3)cc2OC(C)C)c(Cl)c1Cl	1.76	3.23	1.97	1.77	3.46	1.78	3.38	1.63	3.18	1.74	3.91	2.5	5.79	1.79	4.04	2.15	4.71	1.88	3.44	3.79
C[N+](C)([O-])CCCNc1c2ccccc2nc2cccc([N+](=O)[O-])c12	–	0.647	–	–	2.24	–	0.393	–	0.872	–	7.63	–	1.39	–	1.57	–	> 100	–	0.707	0.421
CNC(=O)c1c(NC(=O)c2cccc(C(F)(F)F)c2)sc2c1CCC(=O)C2	0.544	3.1	0.874	0.259	2.73	0.656	2.52	0.447	> 36.8	0.425	45.9	1.61	5.71	0.465	2.73	0.135	> 100	0.365	> 100	3.5
c1cc(C2CCCCC2)ccc1OCCCCCCN1CCNCC1	1.64	3.12	1.82	1.63	3.17	2.14	3.76	2.31	5.31	1.96	4.48	4.67	26.4	1.75	3.5	1.46	3.11	1.84	3.43	3.71
C[C@@H]1COCCN1c1nc(-c2cnc(N)cc2C(F)F)nc(N2[C@H](C)COC[C@@H]2C)n1	0.321	10.6	0.382	0.355	13.7	0.31	12.2	0.272	12.5	0.128	0.611	0.2	11.2	0.392	16.5	0.379	17.4	0.179	12.1	7.62
CCc1ccc(-c2ccc(=O)n(-c3ccc(S(N)(=O)=O)cc3)n2)cc1	0.252	1.71	5.04	3.36	29	–	> 100	11.7	> 79.8	1.55	23.6	21.1	> 100	> 64.4	> 100	0.297	> 46.6	0.97	> 21.2	38.9
COc1cc([C@@H]2c3cc4c(cc3C(Br)[C@H]3COC(=O)[C@H]23)OCO4)cc(OC)c1OC (stereo partly specified)	0.0365	–	0.499	0.296	> 81.2	0.255	0.694	0.307	33.8	0.142	0.707	0.721	> 100	0.552	> 100	0.185	> 100	0.204	0.547	> 100
CCCCCCCCCCCCCCCC(=O)OCC1OC(n2cnc3c(=S)nc(N)[nH]c32)C(OC(=O)CCCCCCCCCCCCCCC)C1OC(=O)CCCCCCCCCCCCCCC (stereo unspecified)	3.68	> 50	4.39	24.1	> 50	6.88	> 50	2.46	> 50	13	> 50	8.59	> 50	3.4	> 39.3	2.05	> 50	2.8	> 22.6	28.4
COc1ccc(Nc2ccnc(NCCNc3ccnc4cc(Cl)ccc34)n2)cc1	1.5	2.9	2.25	1.69	5.22	1.5	3.48	1.87	4.33	2	5.91	7.29	21.1	1.29	7.13	1.32	4.75	2.36	12.8	4.11
COc1cc2c(c(OC)c1OC)-c1ccc(NNC(=S)N(Cc3cccc(C[N+](Cc4cccc(CNC56CC7CC(CC(C7)C5)C6)c4)(Cc4cccc(CNC56CC7CC(CC(C7)C5)C6)c4)Cc4cccc(CN(C(=S)NNc5ccc6c(cc5=O)[C@@H](NC(C)=O)CCc5cc(OC)c(OC)c(OC)c5-6)C56CC7CC(CC(C7)C5)C6)c4)c3)C34CC5CC(CC(C5)C3)C4)c(=O)cc1[C@@H](NC(C)=O)CC2 (stereo partly specified)	0.779	3.5	0.861	–	–	0.635	1.47	1.3	5.28	1.22	6.76	1.96	9.97	1.17	5.03	–	–	1.22	3.79	2.76
Cc1nc2cncc(C#Cc3cncc(C(=O)Nc4ccc(CN5CCN(C)CC5)c(C(F)(F)F)c4)c3)c2nc1C	0.21	3.03	0.204	0.559	7.43	1.33	20.5	0.925	7.4	0.193	1.61	0.0572	4.19	0.608	17.5	0.005	5.81	0.354	6.34	0.94
CCN(CC)CCOc1ccc(Nc2ncc3cc(-c4c(Cl)cccc4Cl)c(=O)n(CCOC)c3n2)cc1	0.469	2.5	0.493	0.608	5	1.25	3.57	0.0324	5.28	0.0273	1.57	0.1	7.89	0.137	7.09	0.005	18.2	0.562	4.77	7.6
OCc1cccc(-c2ccc3ncc(-c4nc(NC5CC5)ncc4F)n3c2)c1	0.284	0.919	0.244	0.25	> 100	0.333	2.17	0.347	3.03	0.212	0.701	0.301	1.47	–	–	0.434	> 100	0.249	0.825	0.671
Cc1cc(=O)c2cc(N=Cc3ccc([N+](=O)[O-])o3)ccc2o1	–	> 100	–	–	> 100	–	> 100	–	> 100	–	> 100	–	> 100	–	> 100	–	> 100	–	> 100	> 100
O=C1c2ccccc2-c2nccc3cc(Cl)nc1c23	1.41	2.84	2.83	2.43	10.4	> 48.5	> 100	5.72	> 100	1.99	14.2	18.7	> 81.5	> 72.5	> 100	0.665	5.24	3	12.2	7.28
OCCCCC#Cc1ccccc1C#Cc1ccccc1F	18.9	37.2	23.9	16	33.6	17.8	33	14.3	29.8	27.5	71.9	24	49.8	16.2	33.3	23.2	47.2	25.9	60.5	52.5
N#Cc1cccc(C(=O)c2cnn(-c3ccc(F)cc3)c2N)c1	> 25	> 25	24.4	18.1	> 25	> 25	> 25	> 25	> 25	> 25	> 25	> 25	> 25	> 25	> 25	> 25	> 25	> 25	> 25	> 25
CSc1ccc(-c2cc(-c3ccc(NC(=O)CCCN4CCCC4)cc3)nc(-c3ccc(NC(=O)CCCN4CCCC4)cc3)c2)cc1	1.68	3.06	4.58	1.64	3.12	2.49	6.5	6.88	23.9	2.28	6.38	3.12	16.1	2.28	4.86	1.64	3.31	1.81	3.28	19.2
Cc1ccccc1S(=O)(=O)N1[C@H](c2ccc(Cl)cc2)C(C(=O)N[C@@H](Cc2ccccc2)C(N)=O)=C[C@@H]1C(C)(C)C	6.83	13.7	9.59	5.28	12.1	6.48	13.5	9.46	23.9	8.64	26.4	7.05	16.1	5.62	11.9	7.1	35.4	4.7	14.2	17.6
